In US20210369739A1, “COMBINATION THERAPY OF ACYLTHIOUREA COMPOUND AND ABIRATERONE” (TAIHO PHARMACEUTICAL CO., LTD., priority 2018, published 2021):

How the values were obtained:
[1] = system: bone metastasis of castration-resistant prostate cancer; experiment: Combinational administration test: bone scintigraphy, Bone Scan Index (BSI); assay type: in vivo, human; details: with 1000 mg abiraterone acetate once a day
Experimental: (§1) A methanesulfonate salt of compound I and abiraterone acetate were administered to patients of castration-resistant prostate cancer with bone metastasis as subjects, and the efficacy and side effects were evaluated. A schedule of administering the methanesulfonate salt of compound I in any of three doses in terms of the free form (200, 300, or 400 mg/body/day) to patients who were receiving secondary endocrine therapy before docetaxel treatment as subjects once a day for 5 days and taking a drug holiday of the compound I only for 2 days was repeated. During this period, 1000 mg of abiraterone acetate was administered to every dosage groups every day once a day, and six subjects were examined in each dosage group. […] In the side effects that determine this discontinuation of enrollment and evaluation, etc., abnormal clinical examination values, such as an increase in alanine aminotransferase (ALT), an increase in aspartate aminotransferase (AST), and an increase in blood creatine kinase (CK), are not included. […] Accordingly, since the number of cases for evaluation of each dosage group is small, i.e., 6 cases, from the viewpoint of the efficacy, side effects, and administration continuity, 6 cases at 300 mg/body/day were additionally evaluated.
Regarding the efficacy, bone scintigraphy to be used for detecting bone metastasis was implemented, and evaluation was performed based on Bone Scan Index (BSI) using analytical data by BONE NAVI and criteria of Response Evaluation Criteria in Solid Tumors (RECIST) guideline Version 1.1 or Prostate Cancer Clinical Trials Working Group 3 (PCWG3). […] The ANN value indicates the degree of confidence of metastasis on a scale from 0 to 1, and an ANN value exceeding 0.5 is assessed to have a risk of bone metastasis. In addition, in FIG. 1, the best value among BSI measured during the period of administration of the compound I is shown as Best response based on the bone metastasis on the day of starting the administration in each dosage group.

[2] = Combinational administration test: seriousness of side effects (CTCAE Ver. 4.03); assay type: in vivo, human; details: every dosage group; in combination with abiraterone acetate
Experimental: as §1, with “additionally evaluated. […]” for “additionally evaluated.”

In the case of `CNC(=O)c1cc2c(Oc3ccc(NC(=S)NC(=O)Cc4ccccc4)cc3F)ccnc2cc1OC` [compound I, 4-(2-fluoro-4-(3-(2-phenylacetyl)thioureido)phenoxy)-7-methoxy-N-methylquinoline-6-carboxamide], the “suppression of bone metastasis observed (BSI)” value ([1]; 200 mg/body/day as free form, once a day for 5 days then 2-day holiday, CRPC patients with bone metastasis) is reported as “two of six”, the “BSI value became 0” value ([1]; 300 mg/body/day, among the 10 cases with suppression) is reported as “three” and the “suppression of bone metastasis observed (BSI)” value ([1]; 400 mg/body/day as free form, bone metastasis not measurable in one of six cases) is reported as “five of the remaining five”. For the same compound, the side effects [2] was “acceptable”.
